Experimental findings from patent publication US9132129B2, “Antiviral compounds” (KATHOLIEKE UNIVERSITEIT LEUVEN, priority 2010, dated 2015) are described below.

Format in all cases: cell-based
One series concerns HIV-1(NL4.3). The experiment in a line: MT4 based cytopathic effect assay (anti-HIV activity). Particulars: Human immunodeficiency virus 1, MT4; HIV-infected MT-4 cells, MTT, 50% protection. The protocol: MT4 based Cytopathic Effect Assay
(§1) A rapid and automated assay procedure was used for the in vitro evaluation of anti-HIV agents. An HTLV-1 transformed T4-cell line MT-4, which was previously shown to be highly susceptible to and permissive for HIV infection, served as the target cell line. Inhibition of the HIV-induced cytopathogenic effect was used as the end point. The viability of both HIV- and mock-infected cells was assessed spectrophotometrically via in situ reduction of 3-(4,5-dimethylthiazol-2-yl)-2,5-diphenyltetrazolium bromide (MTT). […] The percent protection achieved by the compound in HIV-infected cells was calculated by the following formula:
[formula] whereby (ODT)HIV is the optical density measured with a given concentration of the test compound in HIV-infected cells; (ODC)HIV is the optical density measured for the control untreated HIV-infected cells; (ODC)MOCK is the optical density measured for the control untreated mock-infected cells; all optical density values were determined at 540 nm. […] The ratio of CC50 to EC50 was defined as the selectivity index (SI).
(§2) Cells: MT-4 cells (Miyoshi et al., 1982) were grown and maintained in RPMI 1640medium supplemented with 10% heat-inactivated fetal calf serum, 2 mM I-glutamine, 0.1% sodium bicarbonate, and 20æg of gentamicin per ml.
Viruses: The HIV-1(NL4.3) strain (Adachi et al., 1986) is a molecular clone obtained from the National Institutes of Health (Bethesda, Md.).
Background: Damage to the host cells serves as the signal in cytopathic effect assays.

Series [1] can be described thus: MT4 cytotoxicity in mock-infected cells (MTT). The settings on record: human, mock-infected MT-4 cells. The protocol: as §1, with “formula: […]” for “formula:”
Examples of inhibition of cell proliferation by particular compounds of the invention can be found by looking at the respective CC50 values in the MT-4 cell line.
as §2

For series [2], the system named is HIV-1 virus (NL4.3 strain). The experiment in a line: MT-2 based antiviral assay (S8737E). The settings on record: Human immunodeficiency virus 1, 72 h; MT2 cells, 3 days, JC53BL β-Gal reporter readout. An excerpt: MT-2 Based Antiviral Assay (S8737E)
Much like the MT-4 based cytopathic effect assay, this assay is designed to determine the effects of small molecules on the replication of HIV-1 in the lymphobastoid cell line, MT2, and is able to detect the antiviral effect of compounds acting at any stage of the HIV-1 replication cycle. The assay, along with its associated cytotoxicity assay, was described in detail in 2005 in a paper by Cao et al (Antimicrobial Agents and Chemotherapy 2005; 49(9), p 3833-3841).
Briefly; MT2 cells are infected with the HIV-1 virus (NL4.3 strain) and transferred to assay plates containing serial dilutions of compounds to be tested. The assay plates are incubated for 3 days (MT2) to allow for several rounds of viral replication/infection to take place. At the end of this time, supernatant is transferred into new plates containing JC53BL cells.
JC53BL cells express CXCR4, CCR5 and CD4 receptors, and HIV-1-LTR-β-Gal. Under normal culture conditions undetectable levels of β-Galactosidase are expressed, but in the presence of HIV-1, the viral Tat protein is able to activate the HIV-1-LTR in the JC53BL cells resulting in the increased expression of the β-Gal enzyme. The expression can be measured using the ‘FluorAce β-Galactosidase reporter’ assay. The levels of β-Gal are directly proportional to the levels of Tat (up to a threshold) allowing virus quantification. Compounds that inhibit virus replication will give rise to a reduced signal and a dose-response curve for each compound can be generated. This is then used to determine the IC50 for each compound, a measure of the compound's potency, in a manner similar to the MT-4 based cytopathic effect assay.

A further series in a line: in vitro. The settings on record: human. The protocol: The MT-2 based antiviral assay requires a separate cytotoxicity assessment of the compounds. This was performed using a 3 day MT-2 cytotoxicity assay as follows:
3 Day MT2 Cytotoxicity Assay (S8738E)
The assay is designed to test whether or not compounds have cytotoxic activity in MT2 cells by measuring the viability of these cells in the presence of compounds. The assay is carried out by adding MT2 assay plates containing serial dilutions of the compounds to be screened. After 3 days incubation, the viability of the cells remaining in the plates is assayed using the commercially available reagent CellTiter-Glo (Promega Ltd).

The term EC50 denotes the midpoint of the concentration-response curve. A lower EC50 goes with greater potency. Usually CC50 stands for the concentration at which the toxic effect on the cells reaches its halfway point. A low value points to harm at low concentration. As for `CCCC(C(=O)O)c1c(C)nc2ccc3c(c2c1-c1ccc(C)cc1)CCC3` (centres unmarked) [Cpd023, 2-(3-methyl-1-p-tolyl-8,9-dihydro-7H-cyclopenta[f]quinolin-2-yl)pentanoic acid], it took 4.5 µM to reach a half-maximal effect in the series on HIV-1(NL4.3) (EC50). For the same compound, in series [1], the CC50 amounted to 114 µM.
The corresponding values for `CCCC(C(=O)O)c1c(C)nc2ccc3c(c2c1-c1ccc(C)cc1)CCCC3` (centres unmarked) [Cpd003, 2-(3-methyl-1-4-p-tolyl-7,8,9,10-tetrahydrobenzo[f]quinolin-2-yl)pentanoic acid] are 1.45 µM and 92 µM.
Regarding `CCCC(C(=O)O)c1c(C)nc2c3ccccc3nn2c1-c1ccc(C)cc1` (centres unmarked) [Cpd047, 2-(2-methyl-4-p-tolylpyrimido[1,2-b]indazol-3-yl)pentanoic acid], in series [2], the EC50 was more than 20 µM. Besides, in series [1], the CC50 stood at 200 µM.
On to `Cc1ccc(-c2c(C(OC(C)(C)C)C(=O)O)c(C)nc3cc4c(cc23)CCCC4)cc1` (centres unmarked) [Cpd002, tert-butoxy-(2-methyl-4-p-tolyl-6,7,8,9-tetrahydro-benzo[g]quinolin-3-yl)-acetic acid], for which the EC50 in series [2] is 0.46 µM. Besides, the half-maximal cytotoxic concentration (CC50) at 3 days in the series “in vitro” was more than 10 µM.
On to `CCCC(C(=O)O)c1c(C)nc2cc3c(cc2c1-c1ccc(C)cc1)CCC3` (centres unmarked) [Cpd012, 2-(2-methyl-4-p-tolyl-7,8-dihydro-6H-cyclopenta[g]quinolin-3-yl)pentanoic acid], for which the concentration giving a half-maximal response (EC50) is 1.68 µM in series [2] and 0.53 µM in the series with HIV-1(NL4.3). In the series “in vitro”, this compound came in with a CC50 at 3 days of more than 20 µM. Further, in series [1], the CC50 stood at 82 µM.
Consider `CCCC(C(=O)O)c1c(C)nc2cc3c(cc2c1-c1ccc(C)cc1)CCCC3` (centres unmarked) [Cpd001, 2-(-2-methyl-4-p-tolyl-6,7,8,9-tetrahydrobenzo[g]quinolin-3-yl)pentanoic acid], for which, in the series on HIV-1(NL4.3), the EC50 was found to be 1.45 µM. The compound further showed a CC50 in series [1] of 92 µM.
